Results: paper PMC8621208, “Antiseptic 9-Meric Peptide with Potency against Carbapenem-Resistant Acinetobacter baumannii Infection” (International Journal of Molecular Sciences, 2021)
≈ marks a conversion by molar mass, not a printed value. Read-outs that look alike come from different tables or passages of the source. Where a SMILES comes first, the peptide text is derived from it. [ ]: non-standard residue; d: D form.

Key:
CRAB C0 [1] = format: cell-based, carbapenem-resistant A. baumannii; conditions: peptide pre-incubated 6 h at 37 °C
Procedure: All the peptides at their MICs were pre-incubated with proteolytic enzymes such as trypsin and α-chymotrypsin (10,000:1; peptide: enzyme ratio) for 6 h at 37 °C. Then, 100 μL of peptide-protease cocktail was added to the 100 µL bacterial suspension (E. coli, A. baumannii and CRAB C0, 2 × 10^5 CFU/mL) and further incubated for 16 h at 37 °C. Bacterial suspension without peptide and protease served as negative control. The analysis was repeated at three times using independent experiments, and the degree of bacterial growth was measured at 600 nm using a microplate reader.

CRAB C6 = assay: MIC, broth dilution; format: cell-based, carbapenem-resistant A. baumannii; conditions: read-out: Minimal Inhibitory Concentration (MIC)
Text: (§1) Escherichia coli KCTC 1682 was obtained from the Korean Collection for Type Cultures (KCTC) (Jeongeup-si, Korea), Acinetobacter baumannii KCCM 40203, Pseudomonas aeruginosa KCCM 11328 from the Korea Culture Center of Microorganisms (KCCM) (Seoul, Korea). Klebsiella pneumoniae NCCP 16054 were obtained from the National Culture Collection for Pathogens (NCCP) (Osong, Korea). Additionally, two carbapenem-resistant E. coli (CREC E1 and E2), 11 carbapenem-resistant A. baumannii (CRAB C0–C10) and two carbapenem-resistant K. pneumoniae (CRKP K1 and K2) were isolated from the patients, who presented symptoms and signs of infection at Korea University Anam Hospital (Seoul, Korea) (IRB registration no. 2020AN0157, 4 March 2021). CRAB C0–C10 have the OXA-23 gene with carbapenem-resistance.
(§2) The minimum inhibitory concentrations (MIC) were determined using broth dilution method. Briefly, all the mentioned bacterial strains were grown overnight at 37 °C by Muller–Hinton (MH) media. […] After 16 h incubation, the bacterial growth was read at 600 nm using a SpectraMAX microplate reader (Molecular Devices, San Jose, CA, USA).

CRAB C3 = assay: MIC, broth dilution; format: cell-based, carbapenem-resistant A. baumannii; conditions: read-out: Minimal Inhibitory Concentration (MIC)
Text: as §1, §2

CRAB C7 = assay: MIC, broth dilution; format: cell-based, carbapenem-resistant A. baumannii; conditions: read-out: Minimal Inhibitory Concentration (MIC)
Text: as §1, §2

CRAB C0 [2] = assay: MIC, broth dilution; format: cell-based, carbapenem-resistant A. baumannii; conditions: read-out: Minimal Inhibitory Concentration (MIC)
Text: as §1, §2

CRAB C10 = assay: MIC, broth dilution; format: cell-based, carbapenem-resistant A. baumannii; conditions: read-out: Minimal Inhibitory Concentration (MIC)
Text: as §1, §2

CRAB C5 = assay: MIC, broth dilution; format: cell-based, carbapenem-resistant A. baumannii; conditions: read-out: Minimal Inhibitory Concentration (MIC)
Text: as §1, §2

CRAB C2 = assay: MIC, broth dilution; format: cell-based, carbapenem-resistant A. baumannii; conditions: read-out: Minimal Inhibitory Concentration (MIC)
Text: as §1, §2

CRAB C4 = assay: MIC, broth dilution; format: cell-based, carbapenem-resistant A. baumannii; conditions: read-out: Minimal Inhibitory Concentration (MIC)
Text: as §1, §2

CRAB C9 = assay: MIC, broth dilution; format: cell-based, carbapenem-resistant A. baumannii; conditions: read-out: Minimal Inhibitory Concentration (MIC)
Text: as §1, §2

CRKP K1 = assay: MIC, broth dilution; format: cell-based, carbapenem-resistant K. pneumoniae; conditions: read-out: Minimal Inhibitory Concentration (MIC)
Text: as §1, §2

CRKP K2 = assay: MIC, broth dilution; format: cell-based, carbapenem-resistant K. pneumoniae; conditions: read-out: Minimal Inhibitory Concentration (MIC)
Text: as §1, §2

CRAB C0 outer membrane = assay: Outer membrane permeability, NPN uptake; format: cell-based, carbapenem-resistant A. baumannii
Procedure: The effect of peptides on the disturbance of CRAB C0 outer membrane was analyzed using 1-N-phenylnaphthylamine (NPN, Sigma-Aldrich, St. Louis, MO, USA) uptake assay, as previously described. Briefly, CRAB C0 cell suspensions were mixed with NPN (1 mM) and the background fluorescence was recorded for subtraction (excitation λ = 350 nm, emission λ = 420 nm) using RF-6000PC fluorescent spectrophotometer (Shimadzu Scientific Instruments, Kyoto, Japan). Changes in the NPN fluorescence were recorded after addition of different concentrations of peptides and values are expressed as—fluorescence intensity (A.U.).

K. pneumoniae = assay: microbe, parasite or virus in culture; conditions: K. pneumoniae; 16 h, MH media
Text: as §1, §2

CRAB C8 = assay: microbe, parasite or virus in culture; conditions: CRAB C8
Text: as §1, §2

CRAB C1 = assay: microbe, parasite or virus in culture; conditions: CRAB C1
Text: as §1, §2

[3] = test system: human kidney (HK)-2 cells; assay: Cytotoxicity, WST-8 assay; format: cell-based; conditions: 100 μM, 24 h
Procedure: (§3) Figure 6 In vitro cytotoxicity of Pro9-3 and their analogues. (A) Dose-response curve represent the hemolytic activity of peptides against sheep red blood cell (sRBC). Concentration-dependent (0–100 μM) toxic effects induced by peptides on (B) RAW 264.7 murine macrophage cells and (C) human kidney (HK)-2 cells for 24 h. Melittin was used as a control. Statistical analysis was performed using two-way analysis of variance (ANOVA) with Dunnett’s comparison test. Values are expressed as mean ± SEM of three independent experiments. * p < 0.05, ** p < 0.01, *** p < 0.001, and ns, non-significant compared with the control.
(§4) RAW 264.7 mouse macrophage cells and Human kidney (HK)-2 cells were obtained from Korean cell line bank (Seoul, Korea) and the cells were maintained in DMEM culture media (Thermo Fischer Scientific Inc., Waltham, MA, USA) supplemented with 10% fetal bovine serum, 1% penicillin/streptomycin at 37 °C in a humidified 5% CO2 incubator. The cytotoxicity of the peptides was analyzed using WST-8 cell proliferation assay (Biomax Co, Ltd., Seoul, Korea), and the experiment was performed according to the kit protocol. Briefly, cells (1 × 10^4) were seeded in 96-well plate and the peptides treatment (0–100 μM) were initiated at 80% confluency and then for 24 h. After incubation, WST-8 reagent was added and the change in absorbance was read at 450 nm against reagent blank, and values are expressed as percent cell survival.

P. aeruginosa = assay: MIC, broth dilution; format: cell-based, Pseudomonas aeruginosa KCCM 11328; conditions: 16 h, MH media, read-out: Minimal Inhibitory Concentration (MIC)
Text: as §1, §2

[4] = test system: RAW 264.7 murine macrophage cells; assay: Cytotoxicity, WST-8 assay; format: cell-based, mouse; conditions: 100 μM, 24 h
Procedure: as §3, §4

In the case of CC[C@@H](C)[C@@H](NC(=O)[C@@H](Cc1c[nH]c2ccccc12)NC(=O)[C@@H](CCCNC(=N)N)NC(=O)[C@H](N)CCCNC(=N)N)C(=O)N[C@H](C)C(=O)N[C@H](CC(C)C)C(=O)N[C@H](Cc1c[nH]c2ccccc12)C(=O)N[C@H](CC(C)C)C(=O)N[C@H](CCCNC(=N)N)C(N)=O [R-Pro9-3D, rrwialwlr-NH2] (H-[dR][dR][dW][dI][dA][dL][dW][dL][dR]-NH2), the “Minimal Inhibitory Concentration (MIC)” value (CRAB C0 [1]; CRAB C0 + Trypsin) is reported as 4 µM, the “Minimal Inhibitory Concentration (MIC)” value (CRAB C0 [1]; CRAB C0 + α-Chymotrypsin) is reported as 4 µM and the MIC (CRAB C6) is reported as 4 µM (≈ 5.07 µg/mL). The MIC (CRAB C3) was 8 µM (≈ 10.1 µg/mL), the MIC (CRAB C7) was 4 µM (≈ 5.07 µg/mL) and the MIC (CRAB C0 [2]) was 4 µM (≈ 5.07 µg/mL). For the same compound, the MIC (CRAB C10) was 4 µM (≈ 5.07 µg/mL), the MIC (CRAB C5) was 4 µM (≈ 5.07 µg/mL) and the MIC (CRAB C2) was 4 µM (≈ 5.07 µg/mL). The MIC (CRAB C4) was 4 µM (≈ 5.07 µg/mL), the MIC (CRAB C9) was 4 µM (≈ 5.07 µg/mL) and the MIC (CRKP K1) was 16 µM (≈ 20.3 µg/mL). The MIC (CRKP K2) was 8 µM (≈ 10.1 µg/mL), the “NPN uptake (outer membrane permeabilization)” value (CRAB C0 outer membrane) was “greater NPN uptake than their L-form peptides” and the “Minimal Inhibitory Concentration (MIC)” value (K. pneumoniae) was 8 µM. For the same compound, the “Minimal Inhibitory Concentration (MIC)” value (CRAB C8) was 4 µM, the “Minimal Inhibitory Concentration (MIC)” value (CRAB C1) was 8 µM and the “Toxicity in human kidney (HK)-2 cells” value [3] was 9.6%. For the same compound, the MIC (P. aeruginosa) was 8 µM (≈ 10.1 µg/mL) and the “Toxicity in RAW 264.7 cells” value [4] was 20.3%.
